{
  "source": "patent US11464765B2",
  "about": "“Use of an N-substituted pyridyl benzisoselazolone compound” (SHANGHAITECH UNIVERSITY, priority 2020, dated 2022)",
  "key": {"[1]": {"details": "human, in vivo; cited from earlier work"}, "[2]": {"details": "rats; cited from earlier work"}, "[3]": {"details": "mice; cited from earlier work"}, "[4]": {"test_system": "novel coronavirus (SARS-CoV-2)", "assay": "in vitro cell-virus assay", "format": "cell-based"}},
  "note": "Where two headings read alike, the source gives them in different places.",
  "data": [
    {"compound": "O=c1c2ccccc2[se]n1-c1ccccc1", "note": "[ebselen, Ebselen]", "values": [
      {"measurement": "clinical safety and tolerability", "setting": "[1]", "value": "safe and well tolerated"},
      {"measurement": "oral lethal dose", "setting": "[2]", "value": "> 4600", "unit": "mg/kg"},
      {"measurement": "oral lethal dose", "setting": "[3]", "value": "> 2150", "unit": "mg/kg"},
      {"measurement": "replication ability of SARS-CoV-2 in cells", "setting": "[4]; FIG. 4", "value": "significantly inhibits the replication ability of SARS-CoV-2 in cells"},
      {"measurement": "cytopathy caused by novel coronavirus infection", "setting": "[4]; infected cells, FIG. 3", "value": "can prevent cytopathy caused by novel coronavirus infection"}
    ]}
  ]
}
